ChEMBL document CHEMBL5257099, “Design, synthesis and bioactivity evaluations of 8-substituted-quinoline-2-carboxamide derivatives as novel histone deacetylase (HDAC) inhibitors” (Bioorg Med Chem, 2023)

Assays:
Histone deacetylase = experiment: Inhibition of HDAC in human HeLa nuclear extract using Boc-Lys(Ac)-AMC or Boc-Lys(Tfa)-AMC as substrate preincubated for 5 mins followed by substrate addition and measured after 30 mins by fluorescence assay; format: subcellular, Nucleus
Jurkat = experiment: Antiproliferative activity against human Jurkat cells assessed as inhibition of cell growth incubated for 48 hrs by CCK-8 assay; format: functional, cell-based
Histone deacetylase 8 = target: T1, Histone deacetylase 8 (Homo sapiens, UniProt Q9BY41); experiment: Inhibition of HDAC8 (unknown origin) using Boc-Lys(Ac)-AMC or Boc-Lys(Tfa)-AMC as substrate preincubated for 5 mins followed by substrate addition and measured after 1 hr by fluorescence assay
T1 sequence (Q9BY41 whole entry): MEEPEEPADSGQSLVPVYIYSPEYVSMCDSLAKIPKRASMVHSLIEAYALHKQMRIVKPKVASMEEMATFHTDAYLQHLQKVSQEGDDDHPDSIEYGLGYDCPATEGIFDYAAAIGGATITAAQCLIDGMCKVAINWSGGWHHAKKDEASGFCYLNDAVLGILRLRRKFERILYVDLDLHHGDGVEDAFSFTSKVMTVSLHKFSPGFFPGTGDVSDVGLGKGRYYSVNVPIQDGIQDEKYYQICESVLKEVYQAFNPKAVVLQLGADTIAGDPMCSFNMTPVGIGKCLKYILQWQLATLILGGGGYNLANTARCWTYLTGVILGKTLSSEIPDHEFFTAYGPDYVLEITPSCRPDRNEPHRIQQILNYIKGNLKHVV

in vitro = details: human, HUVEC cells
Description: Cytotoxicity against HUVEC cells assessed as inhibition of cell growth incubated for 48 hrs by CCK-8 assay

Histone deacetylase 2 = Histone deacetylase 2 (Homo sapiens, UniProt Q92769); experiment: Inhibition of HDAC2 (unknown origin) using Boc-Lys(Ac)-AMC or Boc-Lys(Tfa)-AMC as substrate preincubated for 5 mins followed by substrate addition and measured after 1 hr by fluorescence assay
Sequence of Histone deacetylase 2 (Q92769 whole entry): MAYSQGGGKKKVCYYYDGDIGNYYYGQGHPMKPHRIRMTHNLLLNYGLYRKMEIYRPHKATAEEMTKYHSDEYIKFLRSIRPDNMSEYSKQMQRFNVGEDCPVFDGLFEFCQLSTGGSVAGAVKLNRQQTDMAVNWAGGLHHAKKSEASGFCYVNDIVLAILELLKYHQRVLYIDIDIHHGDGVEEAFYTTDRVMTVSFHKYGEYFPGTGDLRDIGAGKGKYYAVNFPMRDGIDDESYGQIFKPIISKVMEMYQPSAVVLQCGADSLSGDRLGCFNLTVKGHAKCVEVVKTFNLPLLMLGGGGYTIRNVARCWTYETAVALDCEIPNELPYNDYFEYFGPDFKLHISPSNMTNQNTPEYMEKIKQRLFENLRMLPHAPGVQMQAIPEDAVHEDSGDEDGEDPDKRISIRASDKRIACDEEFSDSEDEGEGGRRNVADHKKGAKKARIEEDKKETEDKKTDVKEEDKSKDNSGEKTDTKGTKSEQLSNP

cells = format: functional, cell-based; details: Homo sapiens, KM3, 48 h
Description: Antiproliferative activity against human KM3 cells assessed as inhibition of cell growth incubated for 48 hrs by CCK-8 assay

[1] = Metabolic stability in liver microsomes (unknown origin) at 2 mg/ml incubated for 120 mins under shaking condition in presence of NADPH by HPLC method; format: ADME, Microsome; details: 2 h
[2] = target: T2, Protein deacetylase HDAC6 (Homo sapiens, UniProt Q9UBN7); experiment: Inhibition of HDAC6 (unknown origin) using Boc-Lys(Ac)-AMC or Boc-Lys(Tfa)-AMC as substrate preincubated for 5 mins followed by substrate addition and measured after 2 hrs by fluorescence assay
T2 sequence (Q9UBN7 whole entry): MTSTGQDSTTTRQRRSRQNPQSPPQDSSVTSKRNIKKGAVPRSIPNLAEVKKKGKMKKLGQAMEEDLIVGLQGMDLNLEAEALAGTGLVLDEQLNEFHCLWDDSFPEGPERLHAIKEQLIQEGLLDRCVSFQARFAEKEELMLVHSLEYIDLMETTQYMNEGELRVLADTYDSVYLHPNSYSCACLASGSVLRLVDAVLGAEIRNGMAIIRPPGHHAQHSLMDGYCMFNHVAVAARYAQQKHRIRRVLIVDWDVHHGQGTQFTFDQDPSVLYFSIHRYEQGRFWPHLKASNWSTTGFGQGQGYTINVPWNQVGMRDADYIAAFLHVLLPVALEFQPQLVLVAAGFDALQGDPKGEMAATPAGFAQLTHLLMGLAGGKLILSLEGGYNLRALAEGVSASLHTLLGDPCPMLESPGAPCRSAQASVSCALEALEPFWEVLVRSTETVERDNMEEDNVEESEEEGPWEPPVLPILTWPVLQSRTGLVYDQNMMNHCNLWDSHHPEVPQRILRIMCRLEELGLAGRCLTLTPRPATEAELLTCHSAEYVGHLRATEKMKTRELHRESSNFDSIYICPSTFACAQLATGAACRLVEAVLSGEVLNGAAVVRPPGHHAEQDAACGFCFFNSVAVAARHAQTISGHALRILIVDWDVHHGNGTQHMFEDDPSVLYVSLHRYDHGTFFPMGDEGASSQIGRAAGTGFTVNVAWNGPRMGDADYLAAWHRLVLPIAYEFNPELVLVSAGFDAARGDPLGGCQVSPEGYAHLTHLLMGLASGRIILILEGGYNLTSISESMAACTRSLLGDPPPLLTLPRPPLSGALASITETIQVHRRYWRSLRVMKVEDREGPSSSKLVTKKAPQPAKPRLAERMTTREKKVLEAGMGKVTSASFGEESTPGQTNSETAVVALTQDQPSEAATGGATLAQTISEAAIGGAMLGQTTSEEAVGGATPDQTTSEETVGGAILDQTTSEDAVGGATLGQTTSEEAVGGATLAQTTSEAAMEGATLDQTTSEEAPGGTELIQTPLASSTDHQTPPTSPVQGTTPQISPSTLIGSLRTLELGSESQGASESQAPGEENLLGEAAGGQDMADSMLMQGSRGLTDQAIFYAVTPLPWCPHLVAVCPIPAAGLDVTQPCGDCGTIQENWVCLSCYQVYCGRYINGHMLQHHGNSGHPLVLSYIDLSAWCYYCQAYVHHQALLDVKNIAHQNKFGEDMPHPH

PC-3 = experiment: cells; format: functional, cell-based; details: Homo sapiens, PC-3, 48 h
Description: Antiproliferative activity against human PC-3 cells assessed as inhibition of cell growth incubated for 48 hrs by CCK-8 assay

Histone deacetylase 1 = Histone deacetylase 1 (Homo sapiens, UniProt Q13547); experiment: Inhibition of HDAC1 (unknown origin) using Boc-Lys(Ac)-AMC or Boc-Lys(Tfa)-AMC as substrate preincubated for 5 mins followed by substrate addition and measured after 2 hrs by fluorescence assay
Sequence of Histone deacetylase 1 (Q13547 whole entry): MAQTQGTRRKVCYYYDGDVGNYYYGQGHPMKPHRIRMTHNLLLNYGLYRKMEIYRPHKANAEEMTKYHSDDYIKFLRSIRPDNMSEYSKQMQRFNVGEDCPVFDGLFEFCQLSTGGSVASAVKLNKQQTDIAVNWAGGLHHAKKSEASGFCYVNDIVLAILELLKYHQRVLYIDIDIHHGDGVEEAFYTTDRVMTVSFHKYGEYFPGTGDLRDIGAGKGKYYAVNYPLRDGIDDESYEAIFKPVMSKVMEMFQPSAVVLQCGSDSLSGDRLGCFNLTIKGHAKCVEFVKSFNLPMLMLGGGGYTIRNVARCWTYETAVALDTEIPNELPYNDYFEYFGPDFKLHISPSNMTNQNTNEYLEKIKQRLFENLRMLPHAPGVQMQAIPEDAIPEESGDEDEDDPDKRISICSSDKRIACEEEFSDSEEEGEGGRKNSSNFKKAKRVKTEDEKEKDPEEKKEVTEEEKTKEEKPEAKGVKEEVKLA

SK-N-BE(2) = experiment: cells; format: functional, cell-based; details: Homo sapiens, SKNBE2, 48 h
Description: Antiproliferative activity against human SK-N-BE(2) cells assessed as inhibition of cell growth incubated for 48 hrs by CCK-8 assay

Row | IC50 (Histone deacetylase) | IC50 (Jurkat) | IC50 (Histone deacetylase 8) | IC50 at 48 h (in vitro) | IC50 (Histone deacetylase 2) | IC50 (cells) | Stability [1] | IC50 [2] | IC50 (PC-3) | IC50 (Histone deacetylase 1) | IC50 (SK-N-BE(2)) | SMILES
1 | 62 nM |  |  |  |  |  |  |  |  |  |  | O=C(NO)c1ccc(CNC(=O)c2ccc3cccc(OCc4ccccc4)c3n2)cc1
2 | 187 nM |  |  |  |  |  |  |  |  |  |  | CC(C)(C)c1ccc(COc2cccc3ccc(C(=O)NCCCCCC(=O)NO)nc23)cc1
3 |  | 3620 nM |  |  |  |  |  |  |  |  |  | O=C(CCCCCCC(=O)Nc1ccccc1)NO [VORINOSTAT]
4 | 50 nM | 2900 nM | > 10000 nM | > 50000 nM | 26 nM | 500 nM | Stable | 166 nM | 2790 nM | 98 nM | 1210 nM | COc1cccc2ccc(C(=O)NCc3ccc(C(=O)NO)cc3)nc12
5 | 41 nM | 4850 nM | > 10000 nM | > 50000 nM | 72 nM | 1460 nM |  | 61 nM | 5900 nM | 130 nM | 4260 nM | COc1ccc(COc2cccc3ccc(C(=O)NCc4ccc(C(=O)NO)cc4)nc23)cc1
6 | 127 nM |  |  |  |  |  |  |  |  |  |  | COc1ccc(COc2cccc3ccc(C(=O)NCCCCCC(=O)NO)nc23)cc1
7 | 46 nM | 4430 nM | > 10000 nM | > 50000 nM | 43 nM | 1670 nM |  | 101 nM | 4090 nM | 132 nM | 3570 nM | Cc1ccc(COc2cccc3ccc(C(=O)NCc4ccc(C(=O)NO)cc4)nc23)cc1
8 | 54 nM |  |  |  |  |  |  |  |  |  |  | O=C(NO)c1ccc(CNC(=O)c2ccc3cccc(OCc4ccc(Br)cc4)c3n2)cc1
9 | 168 nM |  |  |  |  |  |  |  |  |  |  | O=C(CCCCCNC(=O)c1ccc2cccc(OCc3ccccc3)c2n1)NO
10 | 168 nM |  |  |  |  |  |  |  |  |  |  | O=C(CCCCCNC(=O)c1ccc2cccc(OCc3ccc(Br)cc3)c2n1)NO
11 | 33 nM | 4260 nM | > 10000 nM | > 50000 nM | 18 nM | 2830 nM |  | 38 nM | 5660 nM | 70 nM | 3770 nM | O=C(NO)c1ccc(CNC(=O)c2ccc3cccc(OCc4ccc(F)cc4)c3n2)cc1
